Source: patent US4929751A, “Vinyl tricarbonyl compounds and methods of making the same” (Yale University, priority 1987, dated 1990)
Read-outs that look alike come from different tables or passages of the source.

Experiments:
Assay type in all cases: cell-based
OVCAR-5 (ovarian) = assay: growth inhibition of tumor cell line; settings: for IC50: Homo sapiens, OVCAR-5
Description: (§1) t-Butyl 2,3-dioxo-pent-4-enoate hydrate (A) was contacted with various cell lines as indicated on Table 1 hereinbelow in the column designated as "CELL" or "TUMOR". […]
As described below, the data in Table 1 serve to display the testing results on disease category selectivity in a bar graph format. Bars projecting to the right of the reference (vertical line of asterisks) indicate greater than average sensitivity to the test compound. Each bar represents one power of ten in sensitivity, so that the results for OVCAR-5 (ovarian tumor) indicate a remarkable […] increase in sensitivity over the reference test.
(§2) Table 1 reports and illustrates the results obtained by testing t-butyl 2,3-dioxo-pent-4-enoate hydrate. The concentration of this compound found to inhibit the growth of each cell line listed under "CELL" by 50% is reported under "LOG(IC50)" as the logarithm of the concentration. The units of concentration are either molarity in which case an "M" is shown in parentheses next to the LOG(IC50) label, or micrograms per ml, in which case a "W" (for weight) is shown in parenthesis. The cell line names are grouped by disease type and the disease type names are listed on the far left.

[1] = test system: DMS114 (small cell lung cancer); assay: growth inhibition of tumor cell line; settings: Homo sapiens
Description: as §1, §2

[2] = test system: H524 (small cell lung cancer); assay: growth inhibition of tumor cell line; settings: Homo sapiens, NCI-H524
Description: as §1, §2

[3] = test system: H69 (small cell lung cancer); assay: growth inhibition of tumor cell line
Description: as §1, §2

CCRF-CEM (leukemia) = assay: growth inhibition of tumor cell line; settings: Homo sapiens
Description: as §1, §2

[4] = test system: H358 (nonsmall cell lung cancer); assay: growth inhibition of tumor cell line; settings: Homo sapiens, NCI-H358
Description: as §1, §2

[5] = test system: EKV-X (nonsmall cell lung cancer); assay: growth inhibition of tumor cell line; settings: Homo sapiens, EKVX
Description: as §1, §2

CAKI-1 (renal) = assay: growth inhibition of tumor cell line; settings: Homo sapiens
Description: as §1, §2

MOLT-4 (LEU) = assay: growth inhibition of tumor cell line; settings: Homo sapiens, status R (not acceptable test)
Description: as §1, §2

RPMI-7951 (melanoma) = assay: growth inhibition of tumor cell line; settings: Homo sapiens
Description: as §1, §2

[6] = test system: H23 (nonsmall cell lung cancer); assay: growth inhibition of tumor cell line
Description: as §1, §2

P388/ADR = assay: growth inhibition of tumor cell line; settings: Mus musculus
Description: as §1, §2

[7] = test system: H322 (nonsmall cell lung cancer); assay: growth inhibition of tumor cell line; settings: NCI-H322
Description: as §1, §2

[8] = test system: SK-MES-1 (nonsmall cell lung cancer); assay: growth inhibition of tumor cell line; settings: Homo sapiens, SK-MES1, logarithm of the concentration inhibiting growth by 50%
Description: as §1, §2

SK-MEL2 (melanoma) = assay: growth inhibition of tumor cell line; settings: Homo sapiens
Description: as §1, §2

UO-31 (renal) = assay: growth inhibition of tumor cell line; settings: Homo sapiens, logarithm of the concentration inhibiting growth by 50%
Description: as §1, §2

tumor cells = assay: growth inhibition of tumor cells, whole panel (mean graph)
Description: as §1, §2
The graph on the right depicts the data on the left in a format called a "MEAN GRAPH" which is designed to aid in the identification of differential growth inhibition. […] The interest in using this concept of differential growth inhibition as a criterion of activity in the screening system is to encourage the discovery of new types of anticancer agents having greater tissue specificity than cancer chemotherapeutic agents in use today.
The idea for the Mean Graph resulted from trying to detect differential growth inhibition in a bar graph format Experimentation led to a graph centered at the arithmetic mean (ML) of the logarithm of the IC50'a of all the cell line responses measured for a compound. The Mean Graph is constructed around a vertical reference (indicating ML) by projecting bars to the right or to the left. […] The lengths of the bars are proportional to the differences between the logarithms of the specific cell line IC50's and the overall mean value ML. These lengths represent differences in logarithms which are equivalent to the ratios of the specific IC50's to the geometric mean of all the IC50's. Therefore, a useful property of the Mean Graph format is the ability to compare patterns derived from IC50's measured in different units, e.g, micrograms per ml and molarity. The units cancel in the division process.
Differential growth inhibition is depicted as a bar projecting some distance to the right of ML. A bar projecting three log units to the right of ML, for example, would reflect a cellular sensitivity 1000 times greater than ML. While any degree of sensitivity greater than ML might theoretically be considered differential growth inhibition, in practice one must consider the experimental error in the measurement and at what point the degree of differential growth inhibition becomes meaningful in biological terms. The three values listed a the bottom of the graph provide the value of ML as "AVE LOG(IC50)", the greatest difference from ML as "DELTA" and the difference between the least sensitive cell line and the most sensitive cell line as the "RANGE".

[9] = logarithm of the concentration inhibiting growth by 50%, read-out: LOG(IC50) (converted)

C=CC(=O)C(O)(O)C(=O)OC(C)(C)C [t-butyl 2,3-dioxo-pent-4-enoate hydrate]
IC50 (OVCAR-5 (ovarian); read-out: IC-50 MEAN): 2.01 µM | IC50 (OVCAR-5 (ovarian); [9]): 1.26 µM | effectiveness against ovarian cell line OVCAR-5 (OVCAR-5 (ovarian); in words): particularly effective | IC90 ([1]; DMS-114): 264 µM | IC50 ([1]; DMS-114, logarithm of the concentration inhibiting growth by 50%, read-out: LOG(IC50) (converted)): 126 µM | IC50 ([1]; DMS-114, read-out: IC-50 MEAN): 141 µM | IC90 [2]: 189 µM | IC50 ([2]; H524, logarithm of the concentration inhibiting growth by 50%, read-out: LOG(IC50) (converted)): 39.8 µM | IC50 ([2]; read-out: IC-50 MEAN): 40.8 µM | IC50 ([3]; H69, logarithm of the concentration inhibiting growth by 50%, read-out: LOG(IC50) (converted)): 100 µM | IC90 ([3]; Homo sapiens, NCI-H69): 269 µM | IC50 ([3]; Homo sapiens, NCI-H69, read-out: IC-50 MEAN): 95.5 µM | IC50 (CCRF-CEM (leukemia); CCRF-CE, logarithm of the concentration inhibiting growth by 50%, read-out: LOG(IC50) (converted)): 7.94 µM | IC50 (CCRF-CEM (leukemia); read-out: IC-50 MEAN): 8.05 µM | IC50 ([4]; H358, logarithm of the concentration inhibiting growth by 50%, read-out: LOG(IC50) (converted)): 158 µM | IC50 ([4]; read-out: IC-50 MEAN): 155 µM | IC50 [5, 9]: 200 µM | IC50 ([5]; read-out: IC-50 MEAN): 226 µM | IC90 (CAKI-1 (renal)): 202 µM | IC50 (CAKI-1 (renal); [9]): 50.1 µM | IC50 (CAKI-1 (renal); read-out: IC-50 MEAN): 64.9 µM | IC90 (MOLT-4 (LEU)): 244 µM | IC90 (RPMI-7951 (melanoma)): 178 µM | IC50 (RPMI-7951 (melanoma); RPMI-79, logarithm of the concentration inhibiting growth by 50%, read-out: LOG(IC50) (converted)): 79.4 µM | IC50 (RPMI-7951 (melanoma); read-out: IC-50 MEAN): 76.7 µM | IC50 ([6]; H23, logarithm of the concentration inhibiting growth by 50%, read-out: LOG(IC50) (converted)): 50.1 µM | IC90 ([6]; Homo sapiens, NCI-H23): 197 µM | IC50 ([6]; Homo sapiens, NCI-H23, read-out: IC-50 MEAN): 52.7 µM | IC90 (P388/ADR): 244 µM | IC50 (P388/ADR; P388/AD, logarithm of the concentration inhibiting growth by 50%, read-out: LOG(IC50) (converted)): 126 µM | IC50 (P388/ADR; read-out: IC-50 MEAN): 118 µM | IC90 [7]: 246 µM | IC50 ([7]; H322, logarithm of the concentration inhibiting growth by 50%, read-out: LOG(IC50) (converted)): 50.1 µM | IC50 ([7]; read-out: IC-50 MEAN): 48.7 µM | IC50 [8]: > 25.1 µM | IC90 (SK-MEL2 (melanoma); SK-MEL-2): 174 µM | IC50 (SK-MEL2 (melanoma); SK-MEL-2, logarithm of the concentration inhibiting growth by 50%, read-out: LOG(IC50) (converted)): 79.4 µM | IC50 (SK-MEL2 (melanoma); SK-MEL-2, read-out: IC-50 MEAN): 73.5 µM | IC50 (UO-31 (renal)): > 251 µM | IC50 (tumor cells; arithmetic mean of the logarithm of the IC50 of all cell lines, read-out: AV TC50 (AVE LOG(IC50), ML) (converted)): 74.1 µM | RANGE (tumor cells; difference between least and most sensitive cell line, log units): 2.3 | DELTA (tumor cells; greatest difference from ML, log units): 1.8 | IC50 (tumor cells; mean over the cell lines, read-out: IC-50 MEAN, NSC MEAN): 79.1 µM | IC50 (tumor cells; total cell lines used = 42, read-out: MEAN OF ALL LOGIC50'S (converted)): 100 µM
